Consider four compounds from article PMC12114895, “Lanthanides-Based Nanoparticles Conjugated with Rose Bengal for FRET-Mediated X-Ray-Induced PDT” (Pharmaceuticals, 2025).

“Also recorded” adds a separate entry of the source. Like-named read-outs stand apart in the source and are kept apart here.

Data set [1] deals with T1, NRP-1 (Homo sapiens, UniProt O14786). Briefly: NRP-1 binding, competitive assay. The settings on record: conjugated via maleimide on AGuIX NPs. The procedure: The affinity of AGuIX Ln@Mal-K(RB) and AGuIX Ln@Mal-K(RB)DKPPR to NRP-1 was determined as previously described in terms of IC50 in another study.
Data set [2] concerns the target T1, NRP-1. To be noted: peptide alone, cited from earlier work. The protocol:
In the nano AGuIX platform tested, firstly, DOTA was chelated with Gd or Tb, and secondly, a targeted peptide recognizing neuropilin 1 (NRP-1) coupled to RB (i.e., K(RB)DKPPR) was conjugated to the surface of AGuIX NPs. […] In K(RB)DKPPR, conjugation via a maleimide function enhanced the affinity constant to the order of nM. Finally, NPs were tested in vitro on U-251 MG cells, derived from a human glioblastoma multiforme, using an anchorage-dependent clonogenic assay. […] An increase in SOSG fluorescence signal was observed confirming ^1O2 production, which was inhibited by the addition of NaN3 in the reaction mixture (Figure 11).

A short description of a further data set: RB fluorescence lifetime. It counts as physicochemical. The settings on record: D2O, λexc = 470 nm. The procedure: The Ln luminescence lifetime is recorded after excitation at 545 nm for Tb and 313 nm for Gd. The fluorescence lifetime of RB is recorded after excitation at 470 nm ( τf470 ). ^1O2 emission spectra are obtained after excitation at 558 nm (maximum absorption wavelength of RB) but also after excitation at 351 nm for Tb and 273 nm for Gd.
(§1) Absorption spectra were recorded on a UV-3600 UV–visible double beam spectrophotometer (Shimadzu, Marne-La-Vallée, France). Fluorescence spectra were recorded on a Fluorolog FL3-222 spectrofluorimeter (Horiba Jobin Yvon, Palaiseau, France) equipped with a 450 W Xenon lamp and thermostated cell compartment (25 °C), a UV–visible photomultiplier R928 (Hamamatsu Photonics, Hamamatsu, Japan) and an InGaAs infrared detector (DSS-16A020L Electro-Optical System Inc, Phoenixville, PA, USA). The excitation beam was diffracted by a double ruled grating SPEX monochromator (1200 grooves/mm blazed at 330 nm). The emission beam was diffracted by a double ruled grating SPEX monochromator (1200 grooves/mm blazed at 500 nm). Singlet oxygen emission was detected through a double ruled grating SPEX monochromator (600 grooves/mm blazed at 1 µm) and a long-wave pass (780 nm). All spectra were measured in four-face quartz vials.

Data set [3] can be described thus: Singlet oxygen production quantum yield. Type of data set: physicochemical. To be noted: D2O, reference Eosin Y; for ^1O2 quantum yield ΦΔ558: λexc = 558 nm.
Data set [4] in a line: Fluorescence quantum yield. The settings on record: D2O, λexc = 558 nm; reference tetraphenylporphyrin. Type of data set: physicochemical. The protocol:
as §1
The fluorescence quantum yield (Φf) is calculated using Equation (6).(6) Φf=Φf0 . If/If0.OD0/OD. (n/n0)^2 where Φf and Φf0, If and If0, OD and OD0, n and n0 are the quantum yields, fluorescence intensities, optical densities, and refractive indices of the sample and reference, respectively.
Tetraphenylporphyrin (TPP) was chosen as the fluorescence reference standard (Φf0 = 0.11, toluene).

For data set [5] the following is noted: in ethanol; cited from earlier work. From the text:
RB is a xanthene PS [22] derived from fluorescein (Figure 1a) with interesting photophysical and sonosensitive properties. For example, Nonaka et al. used sonodynamic therapy (SDT) with RB and focused ultra-sound to treat experimental intracranial glioma in rats. […] RB photoactivation can be used for external application on the body, such as wound sealing or ...

A further data set is described as follows: Zeta potential. The settings on record: DLS, Zetasizer Nano-Z, He-Ne 633 nm; pH 7.2 mentioned; listed as AGuIX Ln@Mal-K(RB)DKPPR (Ln = Gd). Type of data set: physicochemical. The protocol: The zeta potential (ξ) for each NPs was determined using Zetasizer Nano-Z (Malvern, UK) equipped with a He-Ne laser at 633 nm.
A short description of data set [6]: Hydrodynamic size by TDA-ICP-MS. The settings on record: Table 4, listed as AGuIX Ln@Mal-K(RB)DKPPR (Ln = Gd). Type of data set: physicochemical. The procedure: TDA experiments were conducted using a TDA-ICP-MS hyphenation between a Sciex P/ACE MDQ instrument and a 7700 Agilent ICP-MS. Fused silica capillaries with an inner diameter of 75 µm and outer diameter of 375 µm, and a total length of 64 cm, were coated with hydroxypropylcellulose (HPC) using a solution of 0.05 g mL^−1 in water. Detection was carried out by ICP-MS at m/z = 158 and m/z = 159 for Gd and Tb detection, respectively. Samples were hydrodynamically injected (0.3psi for 3 s), then mobilized using Tris 10 mM and NaCl 125 mM at 0.7 psi. Between runs, the capillary was flushed at 5 psi for 5 min with the mobilization medium. All measurements were performed at least in duplicates.
The detected peak was fitted by a sum of Gaussian distributions using Origin 8.5 software, according to Equation (8).(8) St=∑i=12Ai/σi 2πexp−t−t0^2/2σi2 where t0 is the peak residence time, and […] are the area under the curve and the temporal variance associated with each species i, respectively.
Under these experimental conditions, the molecular diffusion coefficient D is given by(9) D=Rc2t0/24σ^2=2kBT/6πηDh where Rc is the capillary radius, kB is the Boltzmann constant, T is the temperature, η is the viscosity, and Dh is the hydrodynamic diameter of the solute.
Therefore, using Equation (9), the hydrodynamic diameters can be calculated from the temporal variances measured from the fitted Taylorgram.

The next data set is described as follows: Ln luminescence lifetime. Type of data set: physicochemical. The settings on record: D2O, λexc/λdetection = 273/313 nm.
A further data set has as its system U-251 MG cells. Put plainly: Anchorage-dependent clonogenic assay with X-ray irradiation. Type of data set: cell-based, human. To be noted: [RB] = 1 µM, 24 h, X-ray 2 Gy (320 kV, 10 mA, 3 Gy/min), clones after 7 days; fraction of untreated non-irradiated cells; mean, triplicates from 3 experiments (n = 9).
Where [7] appears, read: listed as AGuIX Ln@Mal-K(RB)DKPPR (Ln = Gd).

T1 sequence (O14786 22-923): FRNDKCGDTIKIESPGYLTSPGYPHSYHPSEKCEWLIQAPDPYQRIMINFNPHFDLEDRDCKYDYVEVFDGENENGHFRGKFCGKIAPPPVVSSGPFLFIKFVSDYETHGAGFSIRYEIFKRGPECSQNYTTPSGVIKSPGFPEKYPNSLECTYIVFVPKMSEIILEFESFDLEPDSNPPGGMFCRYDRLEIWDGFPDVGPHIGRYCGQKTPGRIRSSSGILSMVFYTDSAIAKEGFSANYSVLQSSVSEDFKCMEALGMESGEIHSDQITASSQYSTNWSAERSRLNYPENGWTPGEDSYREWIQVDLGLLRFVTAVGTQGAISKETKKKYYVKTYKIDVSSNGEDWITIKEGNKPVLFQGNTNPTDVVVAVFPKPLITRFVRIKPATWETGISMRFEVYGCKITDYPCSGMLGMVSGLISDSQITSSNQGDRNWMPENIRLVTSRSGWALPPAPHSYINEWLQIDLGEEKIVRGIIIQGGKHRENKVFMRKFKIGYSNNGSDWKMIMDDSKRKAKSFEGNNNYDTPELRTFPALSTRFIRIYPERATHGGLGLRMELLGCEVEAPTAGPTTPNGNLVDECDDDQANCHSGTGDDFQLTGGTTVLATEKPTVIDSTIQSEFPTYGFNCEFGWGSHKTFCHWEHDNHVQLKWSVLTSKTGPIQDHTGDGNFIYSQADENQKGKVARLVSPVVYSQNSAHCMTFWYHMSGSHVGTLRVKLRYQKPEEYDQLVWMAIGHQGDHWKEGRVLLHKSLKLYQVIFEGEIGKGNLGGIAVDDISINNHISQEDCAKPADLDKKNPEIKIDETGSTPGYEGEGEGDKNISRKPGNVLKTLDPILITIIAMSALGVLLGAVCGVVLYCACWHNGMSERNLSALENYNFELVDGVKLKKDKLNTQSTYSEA

Turning to “K(RB)DKPPR [NRP-1-targeting peptide coupled to RB]”, the “affinity for NRP-1” value on NRP-1 [1] was “order of nM; also recorded: affinity in the nM range”.
Turning to KDKPPR [NRP-1-targeting peptide], the “affinity for NRP-1” value was “affinity of the order of μM” on NRP-1 [2] (ref 37) and “micromolar affinity” at NRP-1 [2] (ref 40). Besides, the “binding affinity for NRP-1” value on NRP-1 [2] (ref 41) is listed as “around 1 μM”.
Take `O=C1OC2(c3cc(I)c(O)c(I)c3Oc3c2cc(I)c(O)c3I)c2c(Cl)c(Cl)c(Cl)c(Cl)c21` [RB, Rose Bengal]: the “RB fluorescence lifetime τf470” value in “RB fluorescence lifetime” was 0.63 ns. The “^1O2 quantum yield ΦΔ351(Tb) or ΦΔ273(Gd)” value in data set [3] (λexc = 351 nm or 273 nm (not told apart for RB)) is 0.00. Besides, the “^1O2 quantum yield ΦΔ558” value in data set [3] worked out at 0.67. Further, the “Fluorescence quantum yield Φf558” value in data set [4] is 0.15. Further, in [5], the “fluorescence quantum yield (Φf)” value was 0.11 and the “singlet oxygen quantum yield (ΦΔ)” value is 0.68.
Turning to “Mal-K(RB)DKPPR [AGuIX Gd@Mal-K(RB)DKPPR, Mal-K(RB)DKPPR conjugated to thiolated AGuIX Gd NPs by thiol-maleimide click chemistry]”, in “Zeta potential”, the “Zeta potential (ζ)” value is listed as −10 mV. Further, in data set [6], the “percentage of population P1” value was found to be 95% and the “percentage of population P2” value is reported as 5%. Moreover, in [6] (Tris 10 mM and NaCl 125 mM), the “Size, population P1” value is reported as 2.9 nm and the “Size, population P2” value came out at 14.0 nm. In addition, the “RB fluorescence lifetime τf470” value in the data set “RB fluorescence lifetime” (setting [7]) was 3.8 ns. Moreover, the “Ln luminescence lifetime τL (Gd)” value in the data set “Ln luminescence lifetime” came out at 345 µs. Further, in [3] (λexc = 273 nm), the “^1O2 quantum yield ΦΔ273(Gd)” value worked out at 0.35. Further, in [3] (setting [7]), the “^1O2 quantum yield ΦΔ558” value was determined as 0.67. In addition, in data set [4], the “Fluorescence quantum yield Φf558” value is listed as 0.11. Further, the “Cell survival (clonogenic capability relative to control)” value in the data set on U-251 MG cells turned out to be 0.63.
